SMILES strings stand for the structures. Like-named read-outs stand apart in the source and are kept apart here.

These results are taken from patent publication US9233961B2, “Compounds and compositions for the treatment of parasitic diseases” (Novartis AG, priority 2013, dated 2016).

Data set [1] concerns Trypanosoma cruzi amastigotes (Tulahuen strain) cultured in 3T3 fibroblast cells. As to the kind of experiment: Assay for proliferation of kinetoplastid parasite Trypanosoma cruzi. Type of data set: cell-based. Conditions: 144 h. An excerpt:
Assay for Proliferation of Kinetoplastid Parasite Trypanosoma cruzi.
Compounds of the invention can be assayed to measure their capacity to inhibit proliferation of kinetoplastid parasite Trypanosoma cruzi. The screening procedure is for identifying compounds with inhibitor activity against Trypanosoma cruzi amastigotes cultured in 3T3 fibroblast cells. The assay is done using the mammalian stage (amastigotes) of T. cruzi that replicates in the intracellular space of host cells. The host cells are initially infected with the culture-derived trypomastigotes that rapidly invade and then divide as amastigotes. The protocol uses the Tulahuen strain of T. cruzi that has been engineered to express the E. coli beta-galactosidase gene (Lac-Z) (Antimicr. Agents Chemoth. 40:2592, 1996). This allows for a colorimetric readout by using the substrate CPRG and an absorbance plate reader.
3T3 fibroblast cells are re-suspended in RPMI-1640 medium without phenol red medium supplemented with 10% FBS (heat inactivated), 100 μg/ml penicillin, and 100 μg/ml streptomycin. Forty μL of suspension (1,000 cells) is dispensed into 384-well plates and incubated overnight at 37° C. temperature and in atmosphere containing 5% CO2. The following day, 100 nL of compounds of the invention in DMSO are added to plate wells containing 3T3 cells. At the same time control compounds (benznidazole and nifurtimox) and DMSO are added to plates to serve as the positive and negative controls, respectively. After that, 10 μL of media containing 10,000 T. cruzi trypomastigotes are added to each plate well and plates are placed back into incubators. After 6 day incubation, 10 μL of reagent solution (0.6 mM CPRG, 0.6% NP-40 in PBS) is added to plates and incubated at room temperature for 2 hours. Absorbance is then measured on SpectraMax Gemini […] to determine relative number of T. cruzi cells present in each plate well. The percentage inhibition of 50%, EC50, is calculated for each compound. […] Typically, the EC50 is 10 μM or less.

Data set [2] relates to Trypanosoma brucei Lister 427 strain bloodstream form. Kind of data set: Assay for proliferation of kinetoplastid parasite Trypanosoma brucei. The data set is classed as cell-based. To be noted: read-out: T. brucei EC50. In outline: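 Bloodstream-form T. brucei Lister 427 in HMI-9 medium was exposed to compound (DMSO vehicle) for 48 hours at 37° C, 5% CO2. Parasite growth was read as ATP by CellTiter-Glo luminescence, with EC50 calculated from percent inhibition.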

Data set [3] has as its system L. donovani HU3 strain in mouse peritoneal macrophages. As to the kind of experiment: Assay for proliferation of Leishmania parasites in mouse peritoneal macrophages. The data set is classed as cell-based, Leishmania donovani. To be noted: Leishmania donovani, Peritoneal macrophage, read-out: L. donavani Macrophage EC50. In short, it runs like this:
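BALB/c peritoneal macrophages infected 24 h with L. donovani HU3 amastigotes taken from spleens of mice infected 9–11 weeks, then treated with compound for 5 days at 37° C, 5% CO2. Parasite nuclei counted by SYBR Green imaging after fixation; EC50 from percentage inhibition.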

Data set [4] relates to Leishmania donovani axenic amastigote parasites. As to the kind of experiment: Leishmania donovani axenic amastigote proliferation assay. To be noted: read-out: L. donovani amastigotes EC50. The data set is classed as cell-based. In short, it runs like this:
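L. donovani axenic amastigotes (9600/well) in RPMI 1640 with 20% heat-inactivated FBS, folic acid, adenosine, glucose and 25 mM MES, pH 5.5, were incubated with compounds for 2 days at 37 °C, 5% CO2. Viability read by CellTiter-Glo luminescence; EC50 calculated.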

The conditions of data set [5]: patients injected; cited from earlier work.
[6] abbreviates: Tulahuen amastigotes in 3T3 fibroblast cells, 6 day incubation, read-out: T cruzi EC50.
The mark [7] stands for this setting: Lister 427 bloodstream form, 48 hours.

On to `COCCOC(=O)Nc1ccc(Cl)c(-c2nc3ncc(Br)cc3[nH]2)c1` [Compound 371], for which the EC50 in data set [1] (setting [6]) was found to be 3.3 µM; in data set [2] (setting [7]) it was 2.21 µM; in data set [3] it was 6.5 µM; in data set [4] (axenic amastigotes in vitro), 2.35 µM.
For `Cc1cnc2nc(-c3cc(NC(=O)N4CCC(N(C)C)C4)ccc3Cl)[nH]c2c1` (stereo not shown) [Compound 233] the same measures were more than 20 µM, more than 25 µM, more than 50 µM and more than 25 µM.
For `Cc1ccc(C(=O)Nc2ccc(Cl)c(-c3nc4ncc(C(F)(F)F)cc4[nH]3)c2)o1` [Compound 279] the same measures were 0.141 µM, 0.311 µM, 2.25 µM and 0.57 µM.
For `CCN(CC)CCCCCCNC(=O)Nc1ccc(Cl)c(-c2nc3ncc(C)cc3[nH]2)c1` [Compound 227] the same measures were more than 20 µM, more than 15.2 µM, more than 50 µM and more than 25 µM.
`O=C(Nc1ccc(Cl)c(-c2nc3ncc(C4=CCNCC4)cc3[nH]2)c1)c1ccco1` [Compound 70]: the EC50 in data set [1] (setting [6]) stood at 0.49 µM; in data set [2] (setting [7]), 0.174 µM; in data set [3] it was 20.8 µM; in data set [4] (axenic amastigotes in vitro) it was 6 µM.
With `CNc1ccc(-c2cnc3nc(-c4cc(NC(=O)OCCOC)ccc4Cl)[nH]c3c2)cc1` [Example 350, 2-Methoxyethyl N-(4-chloro-3-{6-[4-(methylamino)phenyl]-1H-imidazo[4,5-b]pyridin-2-yl}phenyl)carbamate], the EC50 in data set [1] (TULAHUEN, Fibroblast, read-out: T cruzi EC50) is 0.51 µM; in data set [2] (48 h), 0.8 µM; in data set [3], 1.26 µM; in data set [4], 0.68 µM.
`CNC(=O)Nc1ccc(Cl)c(-c2nc3ncc(C)cc3[nH]2)c1` [Compound 238]: the EC50 in data set [1] (setting [6]) is more than 20 µM; in data set [2] (setting [7]), 9.2 µM; in data set [3] it was 29.3 µM; in data set [4] (axenic amastigotes in vitro), more than 25 µM.
As to `Cc1cnc2nc(-c3cc(NC(=O)c4cccc(N5CCCCC5)c4)ccc3Cl)[nH]c2c1` [Compound 99], the EC50 in data set [1] (setting [6]) was 5.5 µM; in data set [2] (setting [7]) it was 6.3 µM; in data set [3], more than 50 µM; in data set [4] (axenic amastigotes in vitro) it was more than 25 µM.
Consider `Nc1nc(N)nc(Nc2ccc([As]3SCC(CO)S3)cc2)n1` (stereo not shown) [Melarsoprol], for which, in data set [5], the “patients who developed reactive encephalopathy (convulsions, progressive coma, or psychotic reactions)” value is given as 3-10% and the “reactive encephalopathy cases that result in death” value is on record as 10-70%.
Consider `Cc1cnc2nc(-c3cc(NC(=O)c4cccc(N5CCOCC5)c4)ccc3Cl)[nH]c2c1` [Compound 195], for which the half-maximal effective concentration (EC50) in data set [1] (setting [6]) is 8.8 µM; in data set [2] (setting [7]), 7.8 µM; in data set [3] it was more than 50 µM; in data set [4] (axenic amastigotes in vitro) it was 21.2 µM.
Take `Cc1cnc2nc(-c3cc(NC(=O)Cc4ccc(F)cc4)ccc3Cl)[nH]c2c1` [Compound 125]: the EC50 was 9.6 µM in data set [1] (setting [6]), 10 µM in data set [2] (setting [7]), 8.6 µM in data set [3] and more than 25 µM in data set [4] (axenic amastigotes in vitro).
Turning to `Cc1cnc2nc(-c3cc(NC(=O)N4CCN(C)CC4)ccc3Cl)[nH]c2c1` [Compound 244], the 50% effective concentration (EC50) is more than 20 µM in data set [1] (setting [6]), more than 25 µM in data set [2] (setting [7]), more than 50 µM in data set [3] and more than 25 µM in data set [4] (axenic amastigotes in vitro).
For `Cc1cnc2nc(-c3cc(NC(=O)c4cccnn4)ccc3Cl)[nH]c2c1` [Compound 186], the EC50 in data set [1] (setting [6]) was more than 11.5 µM; in data set [2] (setting [7]), 4.5 µM; in data set [3] it was more than 34.7 µM; in data set [4] (axenic amastigotes in vitro), more than 25 µM.
Regarding `Cc1cnc2nc(-c3cc(NC(=O)OC4CCCCC4)ccc3Cl)[nH]c2c1` [Compound 222], the half-maximal effective concentration (EC50) is 6.4 µM in data set [1] (setting [6]), more than 25 µM in data set [2] (setting [7]), more than 22.6 µM in data set [3] and more than 25 µM in data set [4] (axenic amastigotes in vitro).
Take `CCOC(=O)Nc1ccc(Cl)c(-c2nc3ncc(-c4ccc(NC)cc4)cc3[nH]2)c1` [Compound 351]: the EC50 in data set [1] (setting [6]) was 0.243 µM; in data set [2] (setting [7]), 0.206 µM; in data set [3], 3.7 µM; in data set [4] (axenic amastigotes in vitro), 1.19 µM.
Taken in the same sequence, the figures for `Cc1cnc2nc(-c3cc(NC(=O)c4cc(Cl)ccc4Cl)ccc3Cl)[nH]c2c1` [Compound 98] were 1.18 µM, 2.91 µM, 23.5 µM and 16.7 µM.
On to `Cc1cnc2nc(-c3cc(NC(=O)c4ccc(S(C)(=O)=O)s4)ccc3Cl)[nH]c2c1` [Compound 175, N-(4-chloro-3-{6-methyl-1H-imidazo [4,5-b]pyridin-2-yl}phenyl)-5-methanesulfonylthiophene-2-carboxamide], for which the EC50 was 0.067 µM in data set [1] (setting [6]); 0.067 µM in data set [1] (TULAHUEN, T. cruzi in 3T3 fibroblast cells, 6 day incubation, CPRG absorbance, read-out: EC50); more than 20.5 µM in data set [2] (setting [7]); more than 28.9 µM in data set [3]; more than 25 µM in data set [4] (axenic amastigotes in vitro).

A word on the EC50: it is the concentration that produces a half-maximal response.
